Laboratory results reported in ChEMBL document CHEMBL1201862, “PubChem BioAssay data set” (2004).
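Where inhibition never reached the appropriate level, the endpoint shown equals the highest concentration tested. Otherwise, values were interpolated linearly from a five-concentration, 48-hour dose response in 96-well plates. At the GI50, growth is halved.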 Activity calls are given as the source filed them. No stated cut-off is given here; in the data, active = GI50 up to about 1.1 µM and inactive = higher.

Columns and labels:
Test in all cases: NCI anticancer screen, dose series, 48 h
SR = system: SR
UACC-62 = system: UACC-62
UO-31 = system: UO-31
MDA-MB-231 = system: MDA-MB-231
OVCAR-4 = system: OVCAR-4
ACHN = system: ACHN
MDA-N = system: MDA-N
COLO 205 = system: COLO 205
CAKI-1 = system: CAKI-1
Hs-578T = system: Hs-578T
OVCAR-8 = system: OVCAR-8
LOX IMVI = system: LOX IMVI
HL-60 = system: HL-60
NCI-H23 = system: NCI-H23
RPMI-8226 = system: RPMI-8226
A498 = system: A498
SK-MEL-28 = system: SK-MEL-28
HCC 2998 = system: HCC 2998
SW-620 = system: SW-620
UACC-257 = system: UACC-257

SMILES | GI50 (SR) | GI50 (UACC-62) | GI50 (UO-31) | GI50 (MDA-MB-231) | GI50 (OVCAR-4) | GI50 (ACHN) | GI50 (MDA-N) | GI50 (COLO 205) | GI50 (CAKI-1) | GI50 (Hs-578T) | GI50 (OVCAR-8) | GI50 (LOX IMVI) | GI50 (HL-60) | GI50 (NCI-H23) | GI50 (RPMI-8226) | GI50 (A498) | GI50 (SK-MEL-28) | GI50 (HCC 2998) | GI50 (SW-620) | GI50 (UACC-257)
C[C@]12CCC3C4=C(CCC3C1CCC2=O)C(=O)[C@H]1O[C@H]1C4=O (stereo not given in full) | 0.538 µM (active) | 2.94 µM (inactive) | 2.31 µM (inactive) | 1.8 µM (inactive) | 3.05 µM (inactive) | 2.57 µM (inactive) | 7.18 µM (inactive) | 4.33 µM (inactive) | 0.275 µM (active) | 9.51 µM (inactive) | 2.09 µM (inactive) | 1.89 µM (inactive) | 2.67 µM (inactive) | 2.77 µM (inactive) | 0.641 µM (active) | 17.1 µM (inactive) | 12.3 µM (inactive) | 1.9 µM (inactive) | 1.78 µM (inactive) | 17.4 µM (inactive)
C=CCC(CCC(C)=O)(C(=O)OCC)C(=O)OCC | > 100 µM (inactive) | > 100 µM (inactive) | > 100 µM (inactive) | > 100 µM (inactive) | > 100 µM (inactive) | > 100 µM (inactive) | > 100 µM (inactive) | > 100 µM (inactive) | > 100 µM (inactive) | > 100 µM (inactive) | > 100 µM (inactive) |  | > 100 µM (inactive) | > 100 µM (inactive) | > 100 µM (inactive) | > 100 µM (inactive) | > 100 µM (inactive) | > 100 µM (inactive) | > 100 µM (inactive) | > 100 µM (inactive)
CC(=O)c1cccc(NC2C(N)C(NC(=O)N(C)C)(C(C)O)C(C)(O)C2(O)COC(=O)c2c(C)cccc2O)c1 (stereo not given) | < 0.001 µM (active) | 0.01 µM (active) | 0.00191 µM (active) | 0.00187 µM (active) | < 0.001 µM (active) | < 0.001 µM (active) | < 0.001 µM (active) | < 0.001 µM (active) | < 0.001 µM (active) | < 0.001 µM (active) | < 0.001 µM (active) |  | < 0.001 µM (active) | < 0.001 µM (active) | < 0.001 µM (active) | < 0.001 µM (active) | < 0.001 µM (active) | < 0.001 µM (active) | < 0.001 µM (active) | 0.00113 µM (active)
CC(C)(C)OC(=O)NC(Cc1ccc(O)cn1)C(=O)O (stereo not given) | > 100 µM (inactive) |  | > 100 µM (inactive) | > 100 µM (inactive) | > 100 µM (inactive) | > 100 µM (inactive) | > 100 µM (inactive) | > 100 µM (inactive) | > 100 µM (inactive) | > 100 µM (inactive) | > 100 µM (inactive) | > 100 µM (inactive) | > 100 µM (inactive) | > 100 µM (inactive) | > 100 µM (inactive) | > 100 µM (inactive) | > 100 µM (inactive) | > 100 µM (inactive) | > 100 µM (inactive) | > 100 µM (inactive)
O=S(=O)(O)c1cc(S(=O)(=O)O)c2c(/N=N/c3cccc4ccccc34)c(O)ccc2c1 | > 100 µM (inactive) | > 100 µM (inactive) | > 100 µM (inactive) | > 100 µM (inactive) | > 100 µM (inactive) | > 100 µM (inactive) | > 100 µM (inactive) | > 100 µM (inactive) | > 100 µM (inactive) | > 100 µM (inactive) | > 100 µM (inactive) | > 100 µM (inactive) | > 100 µM (inactive) | > 100 µM (inactive) | > 100 µM (inactive) | > 100 µM (inactive) | > 100 µM (inactive) | > 100 µM (inactive) | > 100 µM (inactive) | > 100 µM (inactive)
Clc1ncnc2c1nc(C#Cc1ccccc1)n2Cc1ccccc1 | 3.08 µM (inactive) | 30.5 µM (inactive) | 2.14 µM (inactive) | 26.7 µM (inactive) | 16.7 µM (inactive) | 65.2 µM (inactive) | 5.61 µM (inactive) | 16.5 µM (inactive) | 18.2 µM (inactive) | 53 µM (inactive) | 12.7 µM (inactive) | 11.2 µM (inactive) | 7.83 µM (inactive) | 16.6 µM (inactive) |  | > 100 µM (inactive) | 18.8 µM (inactive) | 11.4 µM (inactive) | 4.09 µM (inactive) | 25.8 µM (inactive)
NS(=O)(=O)c1ccc(/N=N/c2ccc(O)cc2)cc1 | 7.13 µM (inactive) |  | 12.6 µM (inactive) | 64.3 µM (inactive) | 43.4 µM (inactive) | 31.8 µM (inactive) | 61.9 µM (inactive) | 46.3 µM (inactive) | 20.9 µM (inactive) | 61.8 µM (inactive) | 45.3 µM (inactive) | 6.61 µM (inactive) | 30.1 µM (inactive) | 55.6 µM (inactive) | 26.5 µM (inactive) | > 100 µM (inactive) | 21.4 µM (inactive) | > 100 µM (inactive) | 44.5 µM (inactive) | 51.2 µM (inactive)
